From patent US5108997A, “Cephem compounds” (Fujisawa Pharmaceuticals Co., Ltd., priority 1986, dated 1992)
In brackets after ≈: the same amount, converted by molar mass.

What follows are compounds tested on P. vulgaris 49 (assay: In vitro antibacterial activity, two-fold agar-plate dilution method (MIC)). Conditions: Proteus vulgaris, HI-agar, 10^6 viable cells per ml, 37° C. for 20 hours, read-out: MIC (minimal inhibitory concentration).
Type: cell-based
Description: Now in order to show the utility of the object compounds [I], the test data on MIC (minimal inhibitory concentration) of representative compounds [I] of this invention are shown in the following.
In vitro antibacterial activity was determined by the two-fold agar-plate dilution method as described below.
One loopful of an overnight culture of each test strain in Trypticase-soy broth (10^6 viable cells per ml) was streaked on heart infusion agar (HI-agar) containing graded concentrations of representative test compound, and the minimal inhibitory concentration (MIC) was expressed in terms of μg/ml after incubation at 37° C. for 20 hours.

| Compound | MIC |
| --- | --- |
| Cn1c(N)cc[n+]1CC1=C(C(=O)[O-])N2C(=O)C(NC(=O)C(=NOCC(=O)O)c3nsc(N)n3)C2SC1 (stereo not drawn) [Compound A, 7β-[2-(5-Amino-1,2,4-thiadiazol-3-yl)-2-carboxymethoxyiminoacetamido]-3-(3-amino-2-methyl-1-pyrazolio)methyl-3-cephem-4-carboxylate (syn isomer)] | 0.2 µg/mL (≈ 0.372 µM) |
| Cn1c(NC=O)cc[n+]1CC1=C(C(=O)[O-])N2C(=O)C(NC(=O)C(=NOCC(=O)O)c3nsc(N)n3)C2SC1 (stereo not drawn) [Compound B, 7β-[2-(5-Amino-1,2,4-thiadiazol-3-yl)-2-carboxymethoxyiminoacetamide]-3-(3-formamido-2-methyl-1-pyrazolio)methyl-3-cephem-4-carboxylate (syn isomer)] | 0.2 µg/mL (≈ 0.354 µM) |
| Cn1c(N)cc[n+]1CC1=C(C(=O)[O-])N2C(=O)C(NC(=O)C(=NOC(C)(C)C(=O)O)c3nsc(N)n3)C2SC1 (stereo not drawn) [Compound C, 7β-[2-(5-Amino-1,2,4-thiadiazol-3-yl)-2-(1-carboxyl-1-methylethoxyimino)acetamido]-3-(3-amino-2-methyl-1-pyrazolio)methyl-3-cephem-4-carboxylate(syn isomer)] | 0.1 µg/mL (≈ 0.177 µM) |
